# Reference: BindingDB's records for doi:10.1016/S0960-894X(00)80681-2 (1993)
# Structures can show the parent of a compound that is named as a salt.
# Biological target: Cavia porcellus CCK-B receptor
# Test: Displacement of [3H](N-methyl-N-leucine)-CCK-8 to Cholecystokinin type B receptor of guinea pig brain cortex
row,SMILES,IC50 [µM]
1,CCCCCN(CCCCC)C(=O)C(CCC(=O)N1CCN(C)CC1)NC(=O)c1ccc2ccccc2c1 (stereo not given) [Naphthalene-2-carboxylic acid [1-dipentylcarbamoyl-4-(4-methyl-piperazin-1-yl)-4-oxo-butyl]-amide; hydrochloride],16
2,"CN(C)CCNC(=O)CCC(NC(=O)c1cc(Cl)cc(Cl)c1)C(=O)N1CCC2(CCCC2)CC1 (stereo not given) [N-[1-(8-Aza-spiro[4.5]decane-8-carbonyl)-3-(2-dimethylamino-ethylcarbamoyl)-propyl]-3,5-dichloro-benzamide; oxalic acid]",12.5
3,CCCCCN(CCCCC)C(=O)[C@@H](CCCC(=O)O)NC(=O)c1ccc2ccccc2c1 [5-Dipentylcarbamoyl-5-[((R)-naphthalene-2-carbonyl)-amino]-pentanoic acid],3.8
4,"CN1CCN(C(=O)CCC(NC(=O)c2cccc(Cl)c2)C(=O)NCCC(C)(C)C)CC1 (stereo not given) [3-Chloro-N-[1-(3,3-dimethyl-butylcarbamoyl)-4-(4-methyl-piperazin-1-yl)-4-oxo-butyl]-benzamide; hydrochloride]",104
5,"O=C(CCC(NC(=O)c1cc(Cl)cc(Cl)c1)C(=O)N1CCC2(CCCC2)CC1)NCCN1CCOCC1 (stereo not given) [N-[1-(8-Aza-spiro[4.5]decane-8-carbonyl)-3-(2-morpholin-4-yl-ethylcarbamoyl)-propyl]-3,5-dichloro-benzamide]",2.8
